Reference: US20230086702A1, “SUBSTITUTED 2-AMINO-PYRAZOLYL-[1,2,4]TRIAZOLO[1,5A]PYRIDINE DERIVATIVES AND USE THEREOF” (The Johns Hopkins University, priority 2019, published 2023)

Legend:
DLK = biological target: T1, DLK (Homo sapiens, UniProt Q12852); assay: DLK biochemical assay (TR-FRET, MKK7 phosphorylation)
T1 construct: 10 nM DLK, catalytic domain, Carna Biosiences; purchased Carna Biosciences ('Carna Biosiences' [sic])
T1 sequence (Q12852 125-366 limits assumed): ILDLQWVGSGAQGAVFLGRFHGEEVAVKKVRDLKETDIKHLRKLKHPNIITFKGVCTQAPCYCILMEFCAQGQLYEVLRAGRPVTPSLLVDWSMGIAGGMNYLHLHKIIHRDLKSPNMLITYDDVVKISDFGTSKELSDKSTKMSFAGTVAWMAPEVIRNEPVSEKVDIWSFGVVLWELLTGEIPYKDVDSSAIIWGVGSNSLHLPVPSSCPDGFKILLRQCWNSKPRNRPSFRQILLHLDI
Procedure: (§1) DLK assay is a biochemical assay format designed to screen for inhibitors of DLK. Enzymatic activity of DLK is measured by monitoring phosphorylation of the physiological substrate MKK7 (MAP2K7, Dual specificity mitogen-activated protein kinase kinase 7). Phosphorylation is detected by a TR-FRET system whereby His-tagged MKK7 is labeled by a XL665-labeled anti-His antibody (FRET acceptor, emission 665 nm). DLK phosphorylates MKK7 at T275/S277, which is detected by an Eu-labeled anti-phospho-MKK7 (T275/S277) antibody (FRET donor, excitation 340 nm). Phosphorylation of MKK7 results in an increased TR-FRET signal (Ratio XL665-channel/Eu-channel) and inhibition of enzymatic activity of DLK decreases the TR-FRET signal.
Assay Protocol for 1536 MTP format: test compounds are predispensed (60 nl) in test plates; +3 μl DLK solution (10 nM DLK, catalytic domain, Carna Biosiences, 0.6 mM DTT in assay buffer); +2 μl substrate solution (15 nM MKK7, LDB; 60 μM ATP; 0.4 mM DTT in assay buffer); 90 min incubation at RT; +2 μl detection mix (5 nM XL665-labeled anti-His antibody, Cisbio; 0.1 nM Eu-labeled anti-phospho-MKK7 (T275/S277), Cisbio/Millipore in detection buffer); 16 h incubation at 37° C.; endpoint measurement BMG (HTRF).
(§2) Assay Protocol for 384 low volume MTP format: 1 μl of test compounds is pipetted into test plate; +5 μl DLK solution (10 nM DLK, catalytic domain, Carna Biosiences in assay buffer); +5 μl substrate solution (15 nM MKK7, LDB; 60 μM ATP, in assay buffer); 90 min incubation at RT; +9 μl detection mix (20 nM XL665-labeled anti-His antibody, Cisbio; 0.4 nM Eu-labeled anti-phospho-MKK7 (T275/S277), Cisbio/Millipore in detection buffer); 16 h incubation at 4° C.; endpoint measurement BMG (HTRF).
(§3) All indicated concentrations final concentrations.
(§4) Assay buffer (384 format): 50 mM Hepes pH 7.5, 10 mM MgCl2, 1 mM EGTA, 1 mM DTT, 0.01% Triton X-100, 0.01% BSA, 1:500 Smart Block.
(§5) Detection buffer: 25 mM Tris/HCl pH 7.5, 100 mM EDTA, 100 mM NaCl, 200 mM KF, 0.01% Tween 20, 1:500 Smart Block.

LZK = biological target: T2, LZK (Homo sapiens, UniProt O43283); assay: LZK biochemical assay (TR-FRET, MKK7 phosphorylation)
T2 construct: 10 nM LZK, catalytic domain, Carna Biosiences in assay buffer; purchased Carna Biosciences ('Carna Biosiences' [sic])
T2 sequence (O43283 168-409 limits assumed): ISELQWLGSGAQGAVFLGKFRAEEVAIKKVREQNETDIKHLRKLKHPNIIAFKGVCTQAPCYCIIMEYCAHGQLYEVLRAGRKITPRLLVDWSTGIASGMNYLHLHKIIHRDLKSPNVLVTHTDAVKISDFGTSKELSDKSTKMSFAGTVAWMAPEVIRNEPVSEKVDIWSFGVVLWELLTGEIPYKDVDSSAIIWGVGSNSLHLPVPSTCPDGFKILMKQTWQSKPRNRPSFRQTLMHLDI
Procedure: as §1, with “LZK” for “DLK”, “LZK.” for “DLK.”, “T275/S277” for “T275/S277,”
as §2, with “compound” for “compounds”, “LZK” for “DLK”, “LZK,” for “DLK,”, “15” for “60”, “+5” for “+9”, “32°” for “4°”
as §3, §4, §5

Compound | IC50 (DLK) [nM] | IC50 (LZK) [nM]
CC(C)C(c1ccc(C(F)(F)F)nc1)n1cc(-c2cc(-c3ccc(OC4CC4)nc3)n3nc(N)nc3c2)cn1 (racemic) [II-48, 5-[6-(Cyclopropyloxy)pyridin-3-yl]-7-(1-{2-methyl-1-[6-(trifluoromethyl)pyridin-3-yl]propyl}-1H-pyrazol-4-yl)[1,2,4]triazolo[1,5-a]pyridin-2-amine] | 7.5 | 11
CC(C)C(c1ccc(C(F)F)nc1)n1cc(-c2cc(-c3ccc(OC(F)F)nc3)n3nc(N)nc3c2)cn1 (racemic) [II-49, 5-[6-(Difluoromethoxy)pyridin-3-yl]-7-(1-{1-[6-(difluoromethyl)pyridin-3-yl]-2-methylpropyl}-1H-pyrazol-4-yl)[1,2,4]triazolo[1,5-a]pyridin-2-amine] | 31 | 84
CC(C)C(c1ccc(C(F)F)nc1)n1cc(-c2cc(-c3ccc(C4CC4)nc3)n3nc(N)nc3c2)cn1 (racemic) [II-52, 5-(6-Cyclopropylpyridin-3-yl)-7-(1-{1-[6-(difluoromethyl)pyridin-3-yl]-2-methylpropyl}-1H-pyrazol-4-yl)[1,2,4]triazolo[1,5-a]pyridin-2-amine] | 6 | 19
CCC(c1ccc(C(F)(F)F)nc1)n1cc(-c2cc(-c3ccc(C4CC4)nc3)n3nc(N)nc3c2)cn1 (racemic) [II-55, 5-(6-Cyclopropylpyridin-3-yl)-7-(1-{1-[6-(trifluoromethyl)pyridin-3-yl]propyl}-1H-pyrazol-4-yl)[1,2,4]triazolo[1,5-a]pyridin-2-amine] | 21 | 24
CC(C)C(c1ccc(C(F)(F)F)nc1)n1cc(-c2cc(-c3ccc(C4CC4)nc3)n3nc(N)nc3c2)cn1 (racemic) [II-58, 5-(6-Cyclopropylpyridin-3-yl)-7-(1-{2-methyl-1-[6-(trifluoromethyl)pyridin-3-yl]propyl}-1H-pyrazol-4-yl)[1,2,4]triazolo[1,5-a]pyridin-2-amine] | 21 | 22
CCC(c1ccc(C(F)F)nc1)n1cc(-c2cc(-c3ccc(C(F)(F)F)nc3)n3nc(N)nc3c2)cn1 (racemic) [II-61, 7-(1-{1-[6-(Difluoromethyl)pyridin-3-yl]propyl}-1H-pyrazol-4-yl)-5-[6-(trifluoromethyl)pyridin-3-yl][1,2,4]triazolo[1,5-a]pyridin-2-amine] | 65 | 62
CC(C)C(c1ccc(C(F)F)nc1)n1cc(-c2cc(-c3ccc(C(F)(F)F)nc3)n3nc(N)nc3c2)cn1 (racemic) [II-64, 7-(1-{1-[6-(Difluoromethyl)pyridin-3-yl]-2-methylpropyl}-1H-pyrazol-4-yl)-5-[6-(trifluoromethyl)pyridin-3-yl][1,2,4]triazolo[1,5-a]pyridin-2-amine] | 40 | 59
CCC(c1ccc(C(F)F)nc1)n1cc(-c2cc(-c3ccc(C4CC4)nc3)n3nc(N)nc3c2)cn1 (racemic) [II-67, 5-(6-Cyclopropylpyridin-3-yl)-7-(1-{1-[6-(difluoromethyl)pyridin-3-yl]propyl}-1H-pyrazol-4-yl)[1,2,4]triazolo[1,5-a]pyridin-2-amine] | 12 | 15
CC(C)C(c1ccc(C(F)(F)F)nc1)n1cc(-c2cc(-c3ccc(C(F)F)nc3)n3nc(N)nc3c2)cn1 (racemic) [II-70, 5-[6-(Difluoromethyl)pyridin-3-yl]-7-(1-{2-methyl-1-[6-(trifluoromethyl)pyridin-3-yl]propyl}-1H-pyrazol-4-yl)[1,2,4]triazolo[1,5-a]pyridin-2-amine] | 26 | 15
CC(C)C(c1ccc(C(F)(F)F)nc1)n1cc(-c2cc(-c3ccc(C4CC(F)(F)C4)nc3)n3nc(N)nc3c2)cn1 (racemic) [II-73, 5-[6-(3,3-Difluorocyclobutyl)pyridin-3-yl]-7-(1-{2-methyl-1-[6-(trifluoromethyl)pyridin-3-yl]propyl}-1H-pyrazol-4-yl)[1,2,4]triazolo[1,5-a]pyridin-2-amine] | 44 | 44
Nc1nc2cc(-c3cnn(C(c4ccc(C(F)F)nc4)C4CCOCC4)c3)cc(-c3ccc(C(F)(F)F)nc3)n2n1 (racemic) [II-76, 7-(1-{[6-(Difluoromethyl)pyridin-3-yl](tetrahydro-2H-pyran-4-yl)methyl}-1H-pyrazol-4-yl)-5-[6-(trifluoromethyl)pyridin-3-yl][1,2,4]triazolo[1,5-a]pyridin-2-amine] | 21 | 16
CC(C)C(c1ccc(C(F)(F)F)nc1)n1cc(-c2cc(-c3ccc(N4CCCC4)nc3)n3nc(N)nc3c2)cn1 (racemic) [II-79, 7-(1-{2-Methyl-1-[6-(trifluoromethyl)pyridin-3-yl]propyl}-1H-pyrazol-4-yl)-5-[6-(pyrrolidin-1-yl)pyridin-3-yl][1,2,4]triazolo[1,5-a]pyridin-2-amine] | 46 | 27
CC(C)C(c1ccc(C(F)(F)F)nc1)n1cc(-c2cc(-c3ccc(C4(O)CCC4)nc3)n3nc(N)nc3c2)cn1 (racemic) [II-80, 1-{5-[2-Amino-7-(1-{2-methyl-1-[6-(trifluoromethyl)pyridin-3-yl]propyl}-1H-pyrazol-4-yl)[1,2,4]triazolo[1,5-a]pyridin-5-yl]pyridin-2-yl}cyclobutan-1-ol] | 21 | 17
CC(C)C(c1ccc(C(F)(F)F)nc1)n1cc(-c2cc(-c3cnc(OCC(F)(F)F)nc3)n3nc(N)nc3c2)cn1 (racemic) [II-85, 7-(1-{2-Methyl-1-[6-(trifluoromethyl)pyridin-3-yl]propyl}-1H-pyrazol-4-yl)-5-[2-(2,2,2-trifluoroethoxy)pyrimidin-5-yl][1,2,4]triazolo[1,5-a]pyridin-2-amine] | 230 | 320
Nc1nc2c(-c3cnn(CC4CC4(F)F)c3)cc(-c3cnn(Cc4ccccc4)c3)cn2n1 (racemic) [II-89, 6-(1-Benzyl-1H-pyrazol-4-yl)-8-{1-[(2,2-difluorocyclopropyl)methyl]-1H-pyrazol-4-yl}[1,2,4]triazolo[1,5-a]pyridin-2-amine] | 12 | 39
CCC(c1ccc(C(F)(F)F)cc1)n1cc(-c2cc(-c3cnn(C)c3)c3nc(N)nn3c2)cn1 (racemic) [II-99, 8-(1-Methyl-1H-pyrazol-4-yl)-6-(1-{1-[4-(trifluoromethyl)phenyl]propyl}-1H-pyrazol-4-yl)[1,2,4]triazolo[1,5-a]pyridin-2-amine] | 9.2 | 150
